According to PubChem BioAssay (NCI):
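Five concentrations, 48 hours, 96-well plates. TGI: total growth inhibition.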

Key:
Test in all cases: DTP human tumour cell line panel, 48 h
SW-620 colon = system: SW-620 colon
M14 melanoma = system: M14 melanoma
A498 renal = system: A498 renal
NCI-H522 lung = system: NCI-H522 lung
SF-539 CNS = system: SF-539 CNS
DU-145 prostate = system: DU-145 prostate
SN12C renal = system: SN12C renal
EKVX NSCLC = system: EKVX NSCLC
BT-549 breast = system: BT-549 breast
MDA-MB-231 breast = system: MDA-MB-231 breast
MCF7 breast = system: MCF7 breast
PC-3 prostate = system: PC-3 prostate
UACC-62 melanoma = system: UACC-62 melanoma
HS 578T breast = system: HS 578T breast
SNB-75 CNS = system: SNB-75 CNS
SK-MEL-2 melanoma = system: SK-MEL-2 melanoma
OVCAR-4 ovarian = system: OVCAR-4 ovarian
OVCAR-8 ovarian = system: OVCAR-8 ovarian
HL-60(TB) leukemia = system: HL-60(TB) leukemia
MDA-MB-435 = system: MDA-MB-435
CCRF-CEM leukemia = system: CCRF-CEM leukemia
RPMI-8226 leukemia = system: RPMI-8226 leukemia
SK-MEL-28 melanoma = system: SK-MEL-28 melanoma
MDA-N = system: MDA-N
A549 NSCLC = system: A549 NSCLC
NCI-H23 lung = system: NCI-H23 lung
LOX IMVI melanoma = system: LOX IMVI melanoma
MOLT-4 leukemia = system: MOLT-4 leukemia
HT29 colon = system: HT29 colon
ACHN renal = system: ACHN renal
SR leukemia = system: SR leukemia
HOP-92 NSCLC = system: HOP-92 NSCLC
SNB-19 CNS = system: SNB-19 CNS
HCT-15 colon = system: HCT-15 colon
SF-268 CNS = system: SF-268 CNS
OVCAR-5 ovarian = system: OVCAR-5 ovarian
T-47D breast = system: T-47D breast
OVCAR-3 ovarian = system: OVCAR-3 ovarian
HCT-116 colon = system: HCT-116 colon
NCI-H226 lung = system: NCI-H226 lung
MALME-3M melanoma = system: MALME-3M melanoma
K-562 leukemia = system: K-562 leukemia
NCI/ADR-RES ovarian = system: NCI/ADR-RES ovarian
SK-MEL-5 melanoma = system: SK-MEL-5 melanoma
CAKI-1 renal = system: CAKI-1 renal
UO-31 renal = system: UO-31 renal
COLO 205 colon = system: COLO 205 colon
786-0 renal = system: 786-0 renal
RXF 393 renal = system: RXF 393 renal
HCC-2998 colon = system: HCC-2998 colon
UACC-257 melanoma = system: UACC-257 melanoma
KM12 colon = system: KM12 colon
NCI-H460 lung = system: NCI-H460 lung
U251 CNS = system: U251 CNS
IGROV1 ovarian = system: IGROV1 ovarian
TK-10 renal = system: TK-10 renal
HOP-62 NSCLC = system: HOP-62 NSCLC

COc1cc(S(=O)(=O)Nc2ccc(-c3csc(N)n3)cc2)ccc1Cl
TGI (SW-620 colon): 58.5 µM
TGI (M14 melanoma): 35 µM
TGI (A498 renal): 59.2 µM
TGI (NCI-H522 lung): 42.4 µM
TGI (SF-539 CNS): > 100 µM
TGI (DU-145 prostate): 32.4 µM
TGI (SN12C renal): 38.5 µM
TGI (EKVX NSCLC): 30.2 µM
TGI (BT-549 breast): 43.1 µM
TGI (MDA-MB-231 breast): 31.4 µM
TGI (MCF7 breast): 29.9 µM
TGI (PC-3 prostate): 29.7 µM
TGI (UACC-62 melanoma): 30 µM
TGI (HS 578T breast): > 100 µM
TGI (SNB-75 CNS): 39.2 µM
TGI (SK-MEL-2 melanoma): 35 µM
TGI (OVCAR-4 ovarian): 27.9 µM
TGI (OVCAR-8 ovarian): 40.7 µM
TGI (HL-60(TB) leukemia): 43.6 µM
TGI (MDA-MB-435): 46.9 µM
TGI (CCRF-CEM leukemia): 53.5 µM
TGI (RPMI-8226 leukemia): 65.1 µM
TGI (SK-MEL-28 melanoma): 48.5 µM
TGI (MDA-N): 38.5 µM
TGI (A549 NSCLC): 39.6 µM
TGI (NCI-H23 lung): 40.1 µM
TGI (LOX IMVI melanoma): 34.8 µM
TGI (MOLT-4 leukemia): 31.7 µM
TGI (HT29 colon): 35.8 µM
TGI (ACHN renal): 32.8 µM
TGI (SR leukemia): 48.4 µM
TGI (HOP-92 NSCLC): 39.5 µM
TGI (SNB-19 CNS): 33.8 µM
TGI (HCT-15 colon): 43.6 µM
TGI (SF-268 CNS): 76.6 µM
TGI (OVCAR-5 ovarian): 40.4 µM
TGI (T-47D breast): 23 µM
TGI (OVCAR-3 ovarian): 28.9 µM
TGI (HCT-116 colon): 29.7 µM
TGI (NCI-H226 lung): 77.5 µM
TGI (MALME-3M melanoma): 31.4 µM
TGI (K-562 leukemia): 44.3 µM
TGI (NCI/ADR-RES ovarian): 83.3 µM
TGI (SK-MEL-5 melanoma): 30.6 µM
TGI (CAKI-1 renal): 45 µM
TGI (UO-31 renal): 37.2 µM
TGI (COLO 205 colon): 33.6 µM
TGI (786-0 renal): 30 µM
TGI (RXF 393 renal): 33.8 µM

CC(=O)OC/C=C\Cn1nc(Br)c(=O)[nH]c1=O
TGI (SW-620 colon): 32.3 µM
TGI (M14 melanoma): 30.9 µM
TGI (A498 renal): 34.7 µM
TGI (NCI-H522 lung): 16.7 µM
TGI (SF-539 CNS): 24.7 µM
TGI (DU-145 prostate): 31.9 µM
TGI (SN12C renal): 55.2 µM
TGI (EKVX NSCLC): 34.5 µM
TGI (BT-549 breast): 22.2 µM
TGI (MDA-MB-231 breast): 43.4 µM
TGI (MCF7 breast): 28.5 µM
TGI (PC-3 prostate): 26 µM
TGI (HS 578T breast): 54 µM
TGI (SNB-75 CNS): 29.6 µM
TGI (SK-MEL-2 melanoma): 30.6 µM
TGI (OVCAR-8 ovarian): 34.7 µM
TGI (HL-60(TB) leukemia): 17.6 µM
TGI (MDA-MB-435): 29.4 µM
TGI (CCRF-CEM leukemia): 24.5 µM
TGI (RPMI-8226 leukemia): 72.7 µM
TGI (SK-MEL-28 melanoma): 32 µM
TGI (MDA-N): 32 µM
TGI (A549 NSCLC): 32.3 µM
TGI (NCI-H23 lung): 32.5 µM
TGI (LOX IMVI melanoma): 20.1 µM
TGI (ACHN renal): 23.4 µM
TGI (SR leukemia): 15.6 µM
TGI (HOP-92 NSCLC): 27.9 µM
TGI (SNB-19 CNS): 37.7 µM
TGI (HCT-15 colon): 27.2 µM
TGI (SF-268 CNS): 31.5 µM
TGI (HCC-2998 colon): 31.7 µM
TGI (UACC-257 melanoma): 31.8 µM
TGI (KM12 colon): 30.1 µM
TGI (OVCAR-5 ovarian): 31.8 µM
TGI (T-47D breast): 37.1 µM
TGI (OVCAR-3 ovarian): 22.5 µM
TGI (NCI-H460 lung): 26.7 µM
TGI (NCI-H226 lung): 30.1 µM
TGI (MALME-3M melanoma): 31.1 µM
TGI (U251 CNS): 22.6 µM
TGI (IGROV1 ovarian): 29.4 µM
TGI (K-562 leukemia): 26.5 µM
TGI (NCI/ADR-RES ovarian): 56 µM
TGI (TK-10 renal): 38.2 µM
TGI (SK-MEL-5 melanoma): 30.9 µM
TGI (CAKI-1 renal): 22.8 µM
TGI (UO-31 renal): 31.2 µM
TGI (COLO 205 colon): 29.6 µM
TGI (RXF 393 renal): 27.1 µM
TGI (HOP-62 NSCLC): 45.1 µM
